{
  "source": "patent US20110263487A1",
  "about": "“Plant Production and Delivery System for Recombinant Proteins as Protein-Flour or Protein-Oil Compositions” (University of Georgia Research Foundation, Inc., priority 2007, published 2011)",
  "test_system": "Fall Army Worm, Spodoptera frupperda",
  "experiment": "Larvae feeding on transgenic Arabidopsis plants, mortality",
  "format": "in vivo",
  "details": "relative to control plants",
  "description": "The mortality of moth larvae species was assayed examining the feeding of the three genotypes of transgenic plants relative to each other and relative to wild-type plant controls. An initial result indicates extremely high expression levels of the B.t. and B.t.B expressed from the ACTIN 2 A2pt cassette can be achieved. […] Cry1Ac (plant line Cry1#31, Table 2). The mortality of Fall Army Worm, Spodoptera frupperda, which is 100-fold less sensitive to Cry1Ac, was assayed feeding on these plants.",
  "data": [
    {"substance": "B.t. Cry1Ac: Bacillus thuringiensis toxin Cry1Ac expressed in transgenic Arabidopsis from A2pt::Cry1Ac (SEQ ID NO: 1)", "values": [
      {"measurement": "killing of the Fall Army Worm feeding on transgenic plants", "value": "weak killing activity"}
    ]}
  ]
}
